≈ marks a conversion by molar mass, not a printed value. Where two headings read alike, the source gives them in different places.
Experiments:
Assay in all cases: Antibacterial spectrum, MIC by agar dilution method
Assay type in all cases: cell-based
Escherichia coli KY 8349 = details: KY8349, pH 7.2, strain produces neomycinkanamycin phosphotransferase Type I, read-out: Minimum Inhibitory Concentration
Source text: (§1) XK-62-2, 1-N-[L-(-)-α-hydroxy-γ-aminobutyryl] XK-62-2, Compounds (I-1), (I-2), (II-1) and (II-2) against various Gram-negative and Gram-positive bacteria determined by agar dilution method at pH 7.2.
(§2) ^3 produces neomycinkanamycin phosphotransferase Type I

Escherichia coli KY 8320 = details: KY8320, pH 7.2, strain produces neomycinkanamycin phosphotransferase Type I, read-out: Minimum Inhibitory Concentration
Source text: as §1, §2

[1] = system: Pseudomonas aeruginosa KY 8518; details: KY8518, pH 7.2, strain produces neomycinkanamycin phosphotransferase Type I, read-out: Minimum Inhibitory Concentration
Source text: as §1, §2

[2] = system: Pseudomonas aeruginosa KY 8519; details: KY8519, agar dilution, pH 7.2, strain produces neomycinkanamycin phosphotransferase Type I and Type II, read-out: Minimum Inhibitory Concentration
Source text: as §1
(§3) ^6 produces neomycinkanamycin phosphotransferase Type I and Type II

[3] = system: Pseudomonas aeruginosa KY 8512; details: KY8512, pH 7.2, strain produces neomycinkanamycin phosphotransferase Type I and Type II, read-out: Minimum Inhibitory Concentration
Source text: as §1, §3

[4] = system: Pseudomonas aeruginosa KY 8563
Source text: as §1
^7 produces gentamicin acetyltransferase Type III

[5] = system: Escherichia coli KY Z-338; details: KYZ338, pH 7.2, strain produces gentamicin adenyltransferase, read-out: Minimum Inhibitory Concentration
Source text: as §1
(§4) ^4 produces gentamicin adenyltransferase

[6] = system: Klebsiella pneumoniae Y-58; details: Y58, pH 7.2, strain produces gentamicin adenyltransferase, read-out: Minimum Inhibitory Concentration
Source text: as §1, §4

[7] = system: Klebsiella pneumoniae Y-60; details: Y60, pH 7.2, strain produces gentamicin adenyltransferase, read-out: Minimum Inhibitory Concentration
Source text: as §1, §4

Providencia sp. 164 = details: pH 7.2, strain produces gentamicin acetyltransferase Type II, read-out: Minimum Inhibitory Concentration
Source text: as §1
^9 produces gentamicin acetyltransferase Type II

Escherichia coli Juhl = details: agar dilution, pH 7.2, read-out: Minimum Inhibitory Concentration
Source text: as §1

[8] = system: Salmonella typhimurium E-9; details: Salmonella enterica, pH 7.2, read-out: Minimum Inhibitory Concentration
Source text: as §1

[9] = system: Shigella sonnei ATCC 9290; details: ATCC9290, pH 7.2, read-out: Minimum Inhibitory Concentration
Source text: as §1

Proteus morganii KY 4298 = details: Morganella morganii, KY4298; agar dilution, pH 7.2; read-out: Minimum Inhibitory Concentration
Source text: as §1

[10] = system: Klebsiella pneumoniae No. 8045; details: pH 7.2, read-out: Minimum Inhibitory Concentration
Source text: as §1

Serratia sp T-55 = details: T55, agar dilution, pH 7.2, read-out: Minimum Inhibitory Concentration
Source text: as §1

Escherichia coli T-2 = details: T2, pH 7.2, read-out: Minimum Inhibitory Concentration
Source text: as §1

Proteus rettgeri KY 4288 = details: Providencia rettgeri, KY4288, pH 7.2, read-out: Minimum Inhibitory Concentration
Source text: as §1

Proteus vulgaris 6897 = details: pH 7.2, read-out: Minimum Inhibitory Concentration
Source text: as §1

[11] = system: Pseudomonas aeruginosa NC-5
Source text: as §1

[12] = system: Pseudomonas aeruginosa No. 12; details: pH 7.2, read-out: Minimum Inhibitory Concentration
Source text: as §1

Sarcina lutea ATCC 9341 = details: Micrococcus luteus, ATCC9341, pH 7.2, read-out: Minimum Inhibitory Concentration
Source text: as §1

[13] = system: Pseudomonas aeruginosa BMH 1; details: BMH1, pH 7.2, read-out: Minimum Inhibitory Concentration
Source text: as §1

[14] = system: Pseudomonas aeruginosa E-2
Source text: as §1

[15] = system: Streptococcus faecalis ATCC 10541; details: Enterococcus faecalis, ATCC10541, pH 7.2, read-out: Minimum Inhibitory Concentration
Source text: as §1

[16] = system: bacillus subtilis ATCC 6633; details: ATCC6633, pH 7.2, read-out: Minimum Inhibitory Concentration
Source text: as §1

Escherichia coli KY 8321 = details: KY8321, pH 7.2, strain produces gentamicin adenyltransferase and neomycinkanamycin phosphotransferase Type II, read-out: Minimum Inhibitory Concentration
Source text: as §1
^5 produces gentamicin adenyltransferase and neomycinkanamycin
phosphotransferase Type II

[17] = system: Pseudomonas aeruginosa KY Z-444; details: KYZ444, agar dilution, pH 7.2, strain produces 6N-acetyltransferase Type III, read-out: Minimum Inhibitory Concentration
Source text: as §1
(§5) ^8 produces 6N-acetyltransferase Type III

[18] = system: Pseudomonas aeruginosa Z-445; details: Z445, pH 7.2, strain produces 6N-acetyltransferase Type III, read-out: Minimum Inhibitory Concentration
Source text: as §1, §5

Escherichia coli KY 8348 = details: KY8348, pH 7.2, strain produces gentamicin acetyltransferase Type I, read-out: Minimum Inhibitory Concentration
Source text: as §1
(§6) ^2 produces gentamicin acetyltransferase Type I

[19] = system: Pseudomonas aeruginosa KY 8511; details: KY8511, pH 7.2, strain produces gentamicin acetyltransferase Type I, read-out: Minimum Inhibitory Concentration
Source text: as §1, §6

Row | Structure (SMILES) | MIC (Escherichia coli KY 8349) | MIC (Escherichia coli KY 8320) | MIC [1] | MIC [2] | MIC [3] | MIC [5] | MIC [6] | MIC [7] | MIC (Providencia sp. 164) | MIC (Escherichia coli Juhl) | MIC [8] | MIC [9] | MIC (Proteus morganii KY 4298) | MIC [10] | MIC (Serratia sp T-55) | MIC (Escherichia coli T-2) | MIC (Proteus rettgeri KY 4288) | MIC (Proteus vulgaris 6897) | MIC [12] | MIC (Sarcina lutea ATCC 9341) | also measured
1 | CNCC1CCC(N)C(OC2C(N)CC(NC(=O)C(O)CCN)C(OC3OCC(C)(O)C(N)C3O)C2O)O1 (single isomer, unassigned) [II-2, 3"-N-demethyl-1-N-[L-(-)-α-hydroxy-γ-aminobutyryl] XK-62-2] | 0.4 µg/mL (≈ 0.726 µM) | 0.78 µg/mL (≈ 1.42 µM) | 1.56 µg/mL (≈ 2.83 µM) | 6.25 µg/mL (≈ 11.4 µM) | 1.56 µg/mL (≈ 2.83 µM) | 0.4 µg/mL (≈ 0.726 µM) | 0.4 µg/mL (≈ 0.726 µM) | 0.78 µg/mL (≈ 1.42 µM) | 12.5 µg/mL (≈ 22.7 µM) | 1.56 µg/mL (≈ 2.83 µM) | 0.78 µg/mL (≈ 1.42 µM) | 3.12 µg/mL (≈ 5.67 µM) | 1.56 µg/mL (≈ 2.83 µM) | 0.78 µg/mL (≈ 1.42 µM) | 1.56 µg/mL (≈ 2.83 µM) | 0.78 µg/mL (≈ 1.42 µM) | 0.78 µg/mL (≈ 1.42 µM) | 6.25 µg/mL (≈ 11.4 µM) | 0.78 µg/mL (≈ 1.42 µM) | 1.56 µg/mL (≈ 2.83 µM) | MIC ([4]; KY8563, pH 7.2, read-out: Minimum Inhibitory Concentration): 3.12 µg/mL (≈ 5.67 µM); MIC ([11]; NC5, pH 7.2, read-out: Minimum Inhibitory Concentration): 3.12 µg/mL (≈ 5.67 µM); MIC [13]: 1.56 µg/mL (≈ 2.83 µM); MIC ([14]; E2, pH 7.2, read-out: Minimum Inhibitory Concentration): 3.12 µg/mL (≈ 5.67 µM); MIC [15]: 25 µg/mL (≈ 45.4 µM); MIC [16]: 0.2 µg/mL (≈ 0.363 µM); MIC (Escherichia coli KY 8321): 0.78 µg/mL (≈ 1.42 µM); MIC [17]: 1.56 µg/mL (≈ 2.83 µM); MIC [18]: 6.25 µg/mL (≈ 11.4 µM); MIC (Escherichia coli KY 8348): 0.4 µg/mL (≈ 0.726 µM); MIC [19]: 1.56 µg/mL (≈ 2.83 µM)
2 | CNCC1CCC(N)C(OC2C(N)CC(NC(=O)C(O)CN)C(OC3OCC(C)(O)C(NC)C3O)C2O)O1 (racemic) [1-N-(DL-α-hydroxy-β-aminopropionyl) XK-62-2, reference compound] | 0.1 µg/mL (≈ 0.182 µM) | 0.4 µg/mL (≈ 0.726 µM) | 1.56 µg/mL (≈ 2.83 µM) | 6.25 µg/mL (≈ 11.4 µM) | 1.56 µg/mL (≈ 2.83 µM) | 0.2 µg/mL (≈ 0.363 µM) | 0.4 µg/mL (≈ 0.726 µM) | 0.4 µg/mL (≈ 0.726 µM) | 6.25 µg/mL (≈ 11.4 µM) | 0.78 µg/mL (≈ 1.42 µM) | 0.4 µg/mL (≈ 0.726 µM) | 0.78 µg/mL (≈ 1.42 µM) | 0.78 µg/mL (≈ 1.42 µM) | 0.78 µg/mL (≈ 1.42 µM) | 1.56 µg/mL (≈ 2.83 µM) | 0.4 µg/mL (≈ 0.726 µM) | 1.56 µg/mL (≈ 2.83 µM) | 12.5 µg/mL (≈ 22.7 µM) | 0.78 µg/mL (≈ 1.42 µM) | 0.4 µg/mL (≈ 0.726 µM) | MIC ([4]; KY8563, agar dilution, pH 7.2, strain produces gentamicin acetyltransferase Type III, read-out: Minimum Inhibitory Concentration): 3.12 µg/mL (≈ 5.67 µM); MIC ([11]; NC5, agar dilution, pH 7.2, read-out: Minimum Inhibitory Concentration): 3.12 µg/mL (≈ 5.67 µM); MIC [13]: 1.56 µg/mL (≈ 2.83 µM); MIC ([14]; E2, agar dilution, pH 7.2, read-out: Minimum Inhibitory Concentration): 3.12 µg/mL (≈ 5.67 µM); MIC [15]: 12.5 µg/mL (≈ 22.7 µM); MIC [16]: 0.2 µg/mL (≈ 0.363 µM); MIC (Escherichia coli KY 8321): 0.4 µg/mL (≈ 0.726 µM); MIC [17]: 1.56 µg/mL (≈ 2.83 µM); MIC [18]: 3.12 µg/mL (≈ 5.67 µM); MIC (Escherichia coli KY 8348): 0.2 µg/mL (≈ 0.363 µM); MIC [19]: 1.56 µg/mL (≈ 2.83 µM)

— patent US4195171A, “Derivatives of an antibiotic XK-62-2 and process for the production thereof” (Abbott Laboratories, priority 1975, dated 1980)
